Assay results published in ChEMBL document CHEMBL4507297, “Data for DCP probe PF-04457845” (2021).

What was measured:
[1] = target: 5'-AMP-activated protein kinase catalytic subunit alpha-2 (Homo sapiens) (UniProt P54646); conditions: Compound concentration 1000.0 nM
[2] = target: Homeodomain-interacting protein kinase 3 (Homo sapiens) (UniProt Q9H422); conditions: Compound concentration 1000.0 nM
[3] = target: Phosphorylase b kinase gamma catalytic chain, skeletal muscle/heart isoform (Homo sapiens) (UniProt Q16816); conditions: Compound concentration 1000.0 nM
[4] = target: Serine/threonine-protein kinase BRSK1 (Homo sapiens) (UniProt Q8TDC3); conditions: Compound concentration 1000.0 nM
Sequence of Serine/threonine-protein kinase BRSK1 (Homo sapiens) (Q8TDC3 whole entry): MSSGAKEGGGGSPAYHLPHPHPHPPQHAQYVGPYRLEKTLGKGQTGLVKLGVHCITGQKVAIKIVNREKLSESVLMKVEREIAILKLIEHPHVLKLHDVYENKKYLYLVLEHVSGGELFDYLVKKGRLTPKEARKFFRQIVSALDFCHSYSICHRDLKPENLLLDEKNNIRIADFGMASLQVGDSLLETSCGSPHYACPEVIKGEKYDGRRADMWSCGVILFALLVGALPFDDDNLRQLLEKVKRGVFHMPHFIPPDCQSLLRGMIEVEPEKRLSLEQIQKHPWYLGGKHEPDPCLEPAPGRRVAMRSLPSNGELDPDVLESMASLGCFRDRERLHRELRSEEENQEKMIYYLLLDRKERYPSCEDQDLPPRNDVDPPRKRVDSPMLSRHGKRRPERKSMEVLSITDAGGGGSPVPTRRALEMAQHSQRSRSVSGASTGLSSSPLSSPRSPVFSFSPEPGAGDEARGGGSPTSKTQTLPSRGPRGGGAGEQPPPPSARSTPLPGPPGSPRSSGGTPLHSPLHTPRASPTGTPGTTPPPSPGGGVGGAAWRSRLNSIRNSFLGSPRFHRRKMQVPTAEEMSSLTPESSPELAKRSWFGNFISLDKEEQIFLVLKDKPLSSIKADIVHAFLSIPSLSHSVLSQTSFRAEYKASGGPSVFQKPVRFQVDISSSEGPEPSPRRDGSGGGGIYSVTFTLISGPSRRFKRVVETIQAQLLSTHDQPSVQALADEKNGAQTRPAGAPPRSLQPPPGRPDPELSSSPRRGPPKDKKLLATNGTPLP

[5] = target: Mast/stem cell growth factor receptor Kit (Homo sapiens) (UniProt P10721); conditions: Compound concentration 1000.0 nM
[6] = target: Serine/threonine-protein kinase Chk1 (Homo sapiens) (UniProt O14757); conditions: Compound concentration 1000.0 nM
[7] = target: Tyrosine-protein kinase ITK/TSK (Homo sapiens) (UniProt Q08881); conditions: Compound concentration 1000.0 nM
Sequence of Tyrosine-protein kinase ITK/TSK (Homo sapiens) (Q08881 whole entry): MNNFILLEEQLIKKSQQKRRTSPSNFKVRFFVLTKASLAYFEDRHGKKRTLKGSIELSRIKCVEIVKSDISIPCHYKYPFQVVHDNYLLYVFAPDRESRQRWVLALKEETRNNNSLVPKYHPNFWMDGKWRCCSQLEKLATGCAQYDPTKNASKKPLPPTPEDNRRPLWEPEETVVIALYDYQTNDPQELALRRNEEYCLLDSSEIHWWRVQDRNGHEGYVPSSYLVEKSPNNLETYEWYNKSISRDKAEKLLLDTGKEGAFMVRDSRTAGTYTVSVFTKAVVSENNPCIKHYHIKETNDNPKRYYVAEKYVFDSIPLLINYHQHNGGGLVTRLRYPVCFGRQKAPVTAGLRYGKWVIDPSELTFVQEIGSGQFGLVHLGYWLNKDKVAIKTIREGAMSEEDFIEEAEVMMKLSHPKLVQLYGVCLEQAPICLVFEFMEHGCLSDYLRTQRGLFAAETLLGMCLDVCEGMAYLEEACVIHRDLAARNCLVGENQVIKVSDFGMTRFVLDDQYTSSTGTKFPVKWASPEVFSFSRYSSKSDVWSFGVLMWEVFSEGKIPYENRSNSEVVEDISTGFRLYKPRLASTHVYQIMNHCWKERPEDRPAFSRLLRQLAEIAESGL

[8] = system: Fibroblast growth factor receptor 3 (Homo sapiens), P22607 [G697C]; conditions: Compound concentration 1000.0 nM
[9] = target: Casein kinase I isoform gamma-1 (Homo sapiens) (UniProt Q9HCP0); conditions: Compound concentration 1000.0 nM
[10] = target: Tyrosine-protein kinase CSK (Homo sapiens) (UniProt P41240); conditions: Compound concentration 1000.0 nM
Sequence of Tyrosine-protein kinase CSK (Homo sapiens) (P41240 2-450 limits assumed): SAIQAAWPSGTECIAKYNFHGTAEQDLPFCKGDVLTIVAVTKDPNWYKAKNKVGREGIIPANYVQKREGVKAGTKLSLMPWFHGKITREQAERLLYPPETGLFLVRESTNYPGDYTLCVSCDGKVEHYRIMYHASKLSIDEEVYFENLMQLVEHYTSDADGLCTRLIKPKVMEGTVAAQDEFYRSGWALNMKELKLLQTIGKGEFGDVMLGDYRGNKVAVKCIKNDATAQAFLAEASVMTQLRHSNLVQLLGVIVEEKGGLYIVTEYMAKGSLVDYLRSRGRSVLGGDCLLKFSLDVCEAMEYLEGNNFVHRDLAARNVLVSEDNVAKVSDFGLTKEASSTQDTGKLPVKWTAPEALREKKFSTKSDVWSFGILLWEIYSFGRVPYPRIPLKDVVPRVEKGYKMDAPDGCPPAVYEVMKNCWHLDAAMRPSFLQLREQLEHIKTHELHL

[11] = target: RAC-beta serine/threonine-protein kinase (Homo sapiens) (UniProt P31751); conditions: Compound concentration 1000.0 nM
[12] = target: Serine/threonine-protein kinase Nek7 (Homo sapiens) (UniProt Q8TDX7); conditions: Compound concentration 1000.0 nM
[13] = target: Myosin-IIIb (Homo sapiens) (UniProt Q8WXR4); conditions: Compound concentration 1000.0 nM
[14] = target: Serine/threonine-protein kinase haspin (Homo sapiens) (UniProt Q8TF76); conditions: Compound concentration 1000.0 nM
[15] = system: Receptor-type tyrosine-protein kinase FLT3 (Homo sapiens), P36888 [N841I]; conditions: Compound concentration 1000.0 nM
[16] = target: Hepatocyte growth factor receptor (Homo sapiens) (UniProt P08581); conditions: Compound concentration 1000.0 nM
[17] = target: Serine/threonine-protein kinase 25 (Homo sapiens) (UniProt O00506); conditions: Compound concentration 1000.0 nM
[18] = system: Tyrosine-protein kinase ABL1 (Homo sapiens), P00519 [H396P]; conditions: Compound concentration 1000.0 nM
[19] = target: Homeodomain-interacting protein kinase 1 (Homo sapiens) (UniProt Q86Z02); conditions: Compound concentration 1000.0 nM
[20] = target: Serine/threonine-protein kinase 33 (Homo sapiens) (UniProt Q9BYT3); conditions: Compound concentration 1000.0 nM
[21] = target: Serine/threonine-protein kinase N1 (Homo sapiens) (UniProt Q16512); conditions: Compound concentration 1000.0 nM
Sequence of Serine/threonine-protein kinase N1 (Homo sapiens) (Q16512 2-942 limits assumed): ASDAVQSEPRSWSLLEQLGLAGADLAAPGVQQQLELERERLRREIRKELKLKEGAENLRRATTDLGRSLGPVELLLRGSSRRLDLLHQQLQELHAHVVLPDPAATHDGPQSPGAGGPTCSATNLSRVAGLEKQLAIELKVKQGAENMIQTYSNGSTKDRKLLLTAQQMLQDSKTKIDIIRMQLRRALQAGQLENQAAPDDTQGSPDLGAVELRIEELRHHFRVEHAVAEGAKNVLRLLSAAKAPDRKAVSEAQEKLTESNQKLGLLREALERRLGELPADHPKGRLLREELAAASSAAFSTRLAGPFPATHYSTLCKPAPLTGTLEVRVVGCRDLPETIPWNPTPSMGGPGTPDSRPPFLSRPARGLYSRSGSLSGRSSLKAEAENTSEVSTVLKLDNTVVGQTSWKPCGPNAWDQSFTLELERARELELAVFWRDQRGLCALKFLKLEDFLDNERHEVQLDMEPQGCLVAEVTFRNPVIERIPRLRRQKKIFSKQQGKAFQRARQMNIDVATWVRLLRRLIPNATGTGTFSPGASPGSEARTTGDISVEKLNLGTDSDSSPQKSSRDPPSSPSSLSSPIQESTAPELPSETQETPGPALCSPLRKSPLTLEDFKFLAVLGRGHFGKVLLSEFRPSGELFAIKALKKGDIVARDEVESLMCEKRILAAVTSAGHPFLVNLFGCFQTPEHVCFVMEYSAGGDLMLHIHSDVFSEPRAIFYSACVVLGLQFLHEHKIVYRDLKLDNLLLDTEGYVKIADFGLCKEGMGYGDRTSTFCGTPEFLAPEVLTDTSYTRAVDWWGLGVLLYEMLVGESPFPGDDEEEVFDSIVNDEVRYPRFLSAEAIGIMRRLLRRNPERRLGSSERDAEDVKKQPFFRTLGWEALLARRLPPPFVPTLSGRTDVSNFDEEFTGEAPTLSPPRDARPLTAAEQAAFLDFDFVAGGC

[22] = target: Calcium/calmodulin-dependent protein kinase type II subunit gamma (Homo sapiens) (UniProt Q13555); conditions: Compound concentration 1000.0 nM
[23] = target: Epidermal growth factor receptor (Homo sapiens) (UniProt P00533); conditions: Compound concentration 1000.0 nM
[24] = target: Dual specificity mitogen-activated protein kinase kinase 7 (Homo sapiens) (UniProt O14733); conditions: Compound concentration 1000.0 nM
[25] = target: Dual specificity mitogen-activated protein kinase kinase 6 (Homo sapiens) (UniProt P52564); conditions: Compound concentration 1000.0 nM
[26] = system: Tyrosine-protein kinase ABL1 (Homo sapiens), P00519 [F317I]; conditions: Compound concentration 1000.0 nM
[27] = target: Eukaryotic translation initiation factor 2-alpha kinase 1 (Homo sapiens) (UniProt Q9BQI3); conditions: Compound concentration 1000.0 nM
[28] = target: Tyrosine-protein kinase ZAP-70 (Homo sapiens) (UniProt P43403); conditions: Compound concentration 1000.0 nM
Sequence of Tyrosine-protein kinase ZAP-70 (Homo sapiens) (P43403 whole entry): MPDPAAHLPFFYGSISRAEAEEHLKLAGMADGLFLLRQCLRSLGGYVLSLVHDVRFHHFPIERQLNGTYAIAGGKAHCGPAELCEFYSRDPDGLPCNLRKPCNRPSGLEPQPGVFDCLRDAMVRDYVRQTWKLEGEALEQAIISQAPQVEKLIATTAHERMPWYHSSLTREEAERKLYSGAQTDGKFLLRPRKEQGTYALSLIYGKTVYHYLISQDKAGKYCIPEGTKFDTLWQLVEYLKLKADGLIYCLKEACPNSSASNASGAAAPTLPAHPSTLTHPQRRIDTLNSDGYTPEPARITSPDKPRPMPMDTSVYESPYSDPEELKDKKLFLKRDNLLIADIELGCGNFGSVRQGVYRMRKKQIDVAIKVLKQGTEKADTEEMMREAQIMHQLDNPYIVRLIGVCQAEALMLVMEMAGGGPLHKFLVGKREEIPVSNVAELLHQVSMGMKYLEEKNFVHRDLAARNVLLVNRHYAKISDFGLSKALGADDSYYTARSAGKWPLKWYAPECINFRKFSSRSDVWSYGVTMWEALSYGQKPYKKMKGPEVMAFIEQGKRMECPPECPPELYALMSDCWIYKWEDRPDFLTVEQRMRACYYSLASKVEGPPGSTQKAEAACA

[29] = target: Death-associated protein kinase 2 (Homo sapiens) (UniProt Q9UIK4); conditions: Compound concentration 1000.0 nM
[30] = target: Serine/threonine-protein kinase 10 (Homo sapiens) (UniProt O94804); conditions: Compound concentration 1000.0 nM
[31] = target: Ribosomal protein S6 kinase alpha-4 (Homo sapiens) (UniProt O75676); conditions: Compound concentration 1000.0 nM
[32] = system: Phosphatidylinositol 4,5-bisphosphate 3-kinase catalytic subunit alpha isoform (Homo sapiens), P42336 [E542K]; conditions: Compound concentration 1000.0 nM
Sequence of Phosphatidylinositol 4,5-bisphosphate 3-kinase catalytic subunit alpha isoform (Homo sapiens), P42336 [E542K] (P42336 whole entry E542K, canonical isoform): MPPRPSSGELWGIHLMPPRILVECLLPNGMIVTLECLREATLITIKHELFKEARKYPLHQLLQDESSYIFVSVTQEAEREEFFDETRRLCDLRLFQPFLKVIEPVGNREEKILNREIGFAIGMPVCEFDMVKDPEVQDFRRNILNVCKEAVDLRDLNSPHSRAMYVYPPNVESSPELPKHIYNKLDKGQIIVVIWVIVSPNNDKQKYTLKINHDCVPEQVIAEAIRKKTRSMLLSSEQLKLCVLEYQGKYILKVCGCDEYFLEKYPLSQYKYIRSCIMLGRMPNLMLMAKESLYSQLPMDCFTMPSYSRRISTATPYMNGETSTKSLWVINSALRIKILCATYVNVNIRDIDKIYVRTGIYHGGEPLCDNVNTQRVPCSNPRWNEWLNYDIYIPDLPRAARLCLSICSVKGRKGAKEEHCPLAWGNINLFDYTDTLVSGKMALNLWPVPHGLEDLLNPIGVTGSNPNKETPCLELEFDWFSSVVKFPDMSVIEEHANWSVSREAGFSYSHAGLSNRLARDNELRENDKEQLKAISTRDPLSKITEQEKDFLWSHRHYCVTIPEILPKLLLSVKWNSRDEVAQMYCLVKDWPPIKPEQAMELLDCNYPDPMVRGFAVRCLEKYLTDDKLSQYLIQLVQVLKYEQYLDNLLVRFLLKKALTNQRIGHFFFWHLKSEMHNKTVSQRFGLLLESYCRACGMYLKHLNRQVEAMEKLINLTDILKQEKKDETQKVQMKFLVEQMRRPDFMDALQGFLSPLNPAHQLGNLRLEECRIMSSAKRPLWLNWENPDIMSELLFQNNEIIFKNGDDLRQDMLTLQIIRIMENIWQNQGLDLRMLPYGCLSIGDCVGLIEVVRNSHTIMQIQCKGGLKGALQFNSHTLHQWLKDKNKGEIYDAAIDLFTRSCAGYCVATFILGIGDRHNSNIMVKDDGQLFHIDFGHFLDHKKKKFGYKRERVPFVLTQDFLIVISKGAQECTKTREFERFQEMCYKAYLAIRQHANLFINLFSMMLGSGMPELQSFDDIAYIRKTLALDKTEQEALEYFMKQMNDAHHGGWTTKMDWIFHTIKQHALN

[33] = target: Cyclin-dependent kinase 2 (Homo sapiens) (UniProt P24941); conditions: Compound concentration 1000.0 nM
[34] = system: Phosphatidylinositol 4,5-bisphosphate 3-kinase catalytic subunit alpha isoform (Homo sapiens), P42336 [E545A]; conditions: Compound concentration 1000.0 nM
Sequence of Phosphatidylinositol 4,5-bisphosphate 3-kinase catalytic subunit alpha isoform (Homo sapiens), P42336 [E545A] (P42336 whole entry E545A, canonical isoform): as the sequence (P42336 whole entry E542K, canonical isoform) above, with K542E, E545A counted along it

[35] = target: 5-hydroxytryptamine receptor 1D (Homo sapiens) (UniProt P28221); conditions: Compound concentration 10.0 uM
Sequence of 5-hydroxytryptamine receptor 1D (Homo sapiens) (P28221 whole entry): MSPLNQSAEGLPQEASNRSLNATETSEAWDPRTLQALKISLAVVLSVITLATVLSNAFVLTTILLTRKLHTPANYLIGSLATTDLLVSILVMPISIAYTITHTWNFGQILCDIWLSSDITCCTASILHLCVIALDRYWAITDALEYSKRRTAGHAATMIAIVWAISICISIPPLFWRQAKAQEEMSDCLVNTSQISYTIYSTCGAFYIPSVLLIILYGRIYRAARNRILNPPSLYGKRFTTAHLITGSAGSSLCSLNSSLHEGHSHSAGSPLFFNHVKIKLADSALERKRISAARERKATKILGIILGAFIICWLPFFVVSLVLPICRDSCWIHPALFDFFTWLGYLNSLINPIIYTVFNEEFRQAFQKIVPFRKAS

[36] = target: Dual specificity tyrosine-phosphorylation-regulated kinase 1A (Homo sapiens) (UniProt Q13627); conditions: Compound concentration 1000.0 nM
[37] = target: MAP/microtubule affinity-regulating kinase 4 (Homo sapiens) (UniProt Q96L34); conditions: Compound concentration 1000.0 nM
[38] = target: Ephrin type-A receptor 7 (Homo sapiens) (UniProt Q15375); conditions: Compound concentration 1000.0 nM
[39] = target: Cyclin-G-associated kinase (Homo sapiens) (UniProt O14976); conditions: Compound concentration 1000.0 nM
[40] = target: Tyrosine-protein kinase Lyn (Homo sapiens) (UniProt P07948); conditions: Compound concentration 1000.0 nM
[41] = target: Protein kinase C epsilon type (Homo sapiens) (UniProt Q02156); conditions: Compound concentration 1000.0 nM
[42] = system: Receptor-type tyrosine-protein kinase FLT3 (Homo sapiens), P36888 [D835H]; conditions: Compound concentration 1000.0 nM
[43] = system: Receptor-type tyrosine-protein kinase FLT3 (Homo sapiens), P36888 [R834Q]; conditions: Compound concentration 1000.0 nM
[44] = target: 5-hydroxytryptamine receptor 7 (Homo sapiens) (UniProt P34969); conditions: Compound concentration 10.0 uM
[45] = target: High affinity nerve growth factor receptor (Homo sapiens) (UniProt P04629); conditions: Compound concentration 1000.0 nM

O=C(Nc1cccnn1)N1CCC(=Cc2cccc(Oc3ccc(C(F)(F)F)cn3)c2)CC1
inactive: residual activity [1] 100% | residual activity [2] 100% | residual activity [3] 100% | residual activity [4] 73% | residual activity [5] 100% | residual activity [6] 78% | residual activity [7] 100% | residual activity [8] 100% | residual activity [9] 100% | residual activity [10] 100% | residual activity [11] 81% | residual activity [12] 100% | residual activity [13] 100% | residual activity [14] 100% | residual activity [15] 69% | residual activity [16] 100% | residual activity [17] 100% | residual activity [18] 86% | residual activity [19] 100% | residual activity [20] 100% | residual activity [21] 100% | residual activity [22] 74% | residual activity [23] 100% | residual activity [24] 100% | residual activity [25] 100% | residual activity [26] 100% | residual activity [27] 100% | residual activity [28] 100% | residual activity [29] 69% | residual activity [30] 74% | residual activity [31] 98% | residual activity [32] 65% | residual activity [33] 100% | residual activity [34] 100% | inhibition [35] 42.1% | residual activity [36] 100% | residual activity [37] 76% | residual activity [38] 95% | residual activity [39] 100% | residual activity [40] 100% | residual activity [41] 82% | residual activity [42] 88% | residual activity [43] 100% | inhibition [44] 37.5% | residual activity [45] 100%

O=C(Nc1cccnn1)N1CC(C/C=C/c2cncc(Oc3ccc(C(F)(F)F)cn3)n2)C1
inactive: residual activity [1] 96% | residual activity [2] 74% | residual activity [3] 100% | residual activity [4] 100% | residual activity [5] 78% | residual activity [6] 100% | residual activity [7] 100% | residual activity [8] 100% | residual activity [9] 100% | residual activity [10] 100% | residual activity [11] 100% | residual activity [12] 100% | residual activity [13] 100% | residual activity [14] 79% | residual activity [15] 62% | residual activity [16] 95% | residual activity [17] 91% | residual activity [18] 100% | residual activity [19] 88% | residual activity [20] 100% | residual activity [21] 100% | residual activity [22] 100% | residual activity [23] 99% | residual activity [24] 91% | residual activity [25] 100% | residual activity [26] 67% | residual activity [27] 100% | residual activity [28] 90% | residual activity [29] 100% | residual activity [30] 94% | residual activity [31] 100% | residual activity [32] 88% | residual activity [33] 100% | residual activity [34] 75% | inhibition [35] -2.98% | residual activity [36] 75% | residual activity [37] 100% | residual activity [38] 100% | residual activity [39] 100% | residual activity [40] 97% | residual activity [41] 100% | residual activity [42] 100% | residual activity [43] 66% | inhibition [44] 1.18% | residual activity [45] 82%
